The values below come from publication PMC8043168, “Tribolium castaneum defensin 1 kills Moraxella catarrhalisin an in vitro infection model but does not harm commensal bacteria” (Virulence, 2021).

Experiment [1] concerns Streptococcus pneumoniae. Conditions: cited from earlier work. From the text: Among the 23 AMPs we tested, only defensin 1 was previously found to be effective against the Gram-positive pathogen Streptococcus pneumoniae. It is unclear whether the eﬃcacy of defensin 1 indeed lies in the structure of the peptide and whether other AMPs with different structures would also show activity against M. catarrhalis. We therefore also investigated L. sericata sarcotoxin 1 C, which has a linear α-helical structure without disulfide bridges.

The test system of experiment [2] is BDMs infected with M. catarrhalis. Description: Multiplex ELISA of cytokines in BDM supernatant after infection. In kind it is cell-based, human. Conditions: defensin 1 12.5 µM, 1 or 5 h post-infection, MOI 0.5 or 1. The procedure:
The presence of cytokines in the BDM supernatant after infection and treatment with 12.5 µM defensin 1 was assessed using the MAGPIX Multiplex ELISA (Luminex, Austin, TX, USA). BDM supernatants were prepared as recommended for the MAGPIX system. The cytokine panel comprised MIP1-α, MCP1, IL-1β, IL-6, IL-8, IL-10, IL-12p70, IL-23, LAP and TNF-α.
Statistical interpretation of the multiplex ELISA data required the incorporation of data points outside the detection range and adjustments for the effect of parallel technical measurements from the same biological samples. We therefore used the Hodges and Lehmann nonparametric aligned ranks test to compare cytokine secretion by treatment time within treatment groups and between the following control and treatment groups: […]

Experiment [3] deals with M. catarrhalis in human blood-derived macrophages (BDMs). Description: Colony forming unit assay in blood-derived macrophages infected with M. catarrhalis. In kind it is cell-based, Moraxella catarrhalis. As to conditions: MOI 0.5 or 1; defensin 1 12.5 µM or sarcotoxin 1 C 0.39 µM added 1 or 5 h post-infection; further 16 h; lysis with 1% saponin, plating; vs assays without peptide. The procedure: The absolute number of bacterial cells after treatment with defensin 1 or sarcotoxin 1 C was determined by counting the colony forming units (CFUs). M. catarrhalis overnight cultures prepared as described above were grown to the mid-exponential phase (~5 x 10^8 cells/ml) in BHI medium before dilution to 2 × 10^7 cells/ml in PBS containing 0.15% gelatin, and blood-derived macrophages (BDMs) were infected with a multiplicity of infection (MOI) of 0.5 or 1. […] Cells were then incubated for an additional 16 h at 37°C and 5% CO2 and then lysed with 1% saponin. Lysates were plated on sheep blood agar and cultivated for a further 15 h at 37°C and 5% CO2 before manual counting of the colonies on each plate.
All donors gave informed written consent (Ethics approval number: 161/17). Human BDMs were cultured as previously described. Briefly, primary human monocytes were isolated from donor buffy coats by selection for CD14^+ cells using CD14 Microbeads (Miltenyi Biotec, Bergisch Gladbach, Germany). Monocytes were grown in RPMI1640 medium with 1% human AB serum at 37°C and 5% CO2 on ultra-low attachment plates (Sigma-Aldrich, Munich, Germany). After 6 days, differentiated macrophages were detached, seeded at the desired density and incubated for 24 h before further analysis.

Experiment [4] deals with E. coli. Description: Growth kinetics of commensal E. coli. Conditions: liquid LB medium, 37°C, OD600 every 30 min; defensin 1 12.5 µM, sarcotoxin 1 C 0.39 µM. In kind it is cell-based, Escherichia coli. The protocol: (§1) For the analysis of commensal bacteria, E. faecalis was grown on Columbia agar plates or in liquid BHI medium, and E. coli was grown on McConkey agar or in liquid LB medium. After overnight culture on agar plates at 37°C and 5% CO2, both species were transferred to liquid medium at an initial OD600 of 0.005. The cultures were maintained in a shaking incubator at 37°C, and the OD600 was measured automatically at 30-min intervals as above.

The subject of experiment [5] is E. faecalis. Put plainly: Growth kinetics of commensal E. faecalis. In kind it is cell-based, Enterococcus faecalis. As to conditions: liquid BHI medium, 37°C, OD600 every 30 min; defensin 1 12.5 µM, sarcotoxin 1 C 0.39 µM. The procedure:
as §1

Bridge positions count the residues as written; N and C are the ends.

Turning to “H-VTCDLLSAEAKGVKVNHAACAAHCLLKRKRGGYCNKRRICVCRN-OH (disulfide 3-34, 20-40, 24-42 (inferred)) [Defensin 1]”, the “effective against Streptococcus pneumoniae” value in experiment [1] is “effective”. Also, in experiment [2], the “bacteria-induced secretion of IL-1β” value is reported as “inhibited”, the “bacteria-induced secretion of IL-10” value was “inhibited”, the “bacteria-induced secretion of IL-12p70” value is listed as “inhibited” and the “bacteria-induced secretion of IL-23” value is given as “inhibited”. Also, the “M. catarrhalis CFU count (bacterial burden) in infection assay of primary BDMs” value in experiment [3] is “reduced the bacterial burden”. Also, the “effect on growth of E. coli” value in experiment [4] was “minor growth delay”. In addition, the “effect on growth of E. faecalis” value in experiment [5] is reported as “minor growth delay”.
